Reference: patent publication US9133186B2, “Hetero ring-fused imidazole derivative having AMPK activating effect” (Shionogi & Co., Ltd., priority 2010, dated 2015)

Target: T1, human AMPK α1β1γ1 enzyme (Homo sapiens, UniProt Q13131+Q9Y478)
T1 construct: purchased Carna Biosciences, Inc
Experiment: AMPK activator evaluation, Test Example 1 (mobility shift, FL-Peptide 7)
Type: biochemical
Conditions: human AMPK α1β1γ1, control without compound = 100%; for Emax: read-out: Emax (maximum rate of increase in activity within the measurement range)
Experimental: To a buffer solution consisting of a 50 mM HEPES-NaOH buffer solution (pH 7.0), 100 mM NaCl, 10 mM magnesium chloride, 0.1% bovine serum albumin, 0.2 mM sodium orthovanadate(V), 1 mM ethylene glycol-bis(2-aminoethyl ether)-N,N,N′,N′-tetraacetic acid (EGTA), 5 mM disodium (3-glycerophosphate and 2 mM dithiothreitol, a human AMPK α1β1γ1 enzyme (manufactured by Carna Biosciences, Inc.) was added in an amount to give a conversion rate of approximately 10% by reaction for 2 hours, and a compound dissolved in DMSO was added thereto so as to have a 1% DMSO concentration. The obtained liquid was left to stand for 10 minutes.
To the liquid, a substrate solution consisting of a 50 mM HEPES-NaOH buffer solution (pH 7.0), 100 mM NaCl, 10 mM magnesium chloride, 0.1% bovine serum albumin, 0.2 mM sodium orthovanadate(V), 1 mM ethylene glycol-bis(2-aminoethyl ether)-N,N,N′,N′ tetraacetic acid (EGTA), 5 mM disodium β-glycerophosphate, 2 mM dithiothreitol, 0.4 mM ATP and 3 μM FL-Peptide 7 (manufactured by Caliper Life Sciences, Inc.) was added in equal amount (10 μl in total). The obtained liquid was allowed to react at 25° C. for 2 hours, and 10 μl of 20 mM EDTA was then added thereto to stop the reaction.
To detect phosphorylated fluorescent substrates, the reaction liquid was applied to a measuring device, LabChip EZ Reader II manufactured by Caliper Life Science, Inc., for detecting fluorescence by using differences in mobility due to differences in charge. The setting conditions for the device were pressure, −1.5 PSI; upstream voltage, −2250 V; downstream voltage, −400 V; post sample buffer sip time, 40 seconds; final delay, 120 seconds; and peak order, Product First.

T1 sequence (Q13131 10-559 limits assumed): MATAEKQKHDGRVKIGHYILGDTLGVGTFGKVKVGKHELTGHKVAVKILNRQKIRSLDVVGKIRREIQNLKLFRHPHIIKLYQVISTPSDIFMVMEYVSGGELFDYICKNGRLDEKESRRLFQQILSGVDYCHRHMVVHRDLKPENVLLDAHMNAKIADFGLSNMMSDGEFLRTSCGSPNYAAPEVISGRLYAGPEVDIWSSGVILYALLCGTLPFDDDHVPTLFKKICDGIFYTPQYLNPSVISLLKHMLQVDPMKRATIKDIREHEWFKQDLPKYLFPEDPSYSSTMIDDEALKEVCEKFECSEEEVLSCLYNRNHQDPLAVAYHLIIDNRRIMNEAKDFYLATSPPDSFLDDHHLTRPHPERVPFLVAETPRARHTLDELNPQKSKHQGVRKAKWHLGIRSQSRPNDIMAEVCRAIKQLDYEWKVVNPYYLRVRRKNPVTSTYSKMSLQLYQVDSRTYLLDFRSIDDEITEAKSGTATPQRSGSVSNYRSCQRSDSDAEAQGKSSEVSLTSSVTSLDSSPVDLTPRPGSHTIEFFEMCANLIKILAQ
T1 sequence (Q9Y478 whole entry): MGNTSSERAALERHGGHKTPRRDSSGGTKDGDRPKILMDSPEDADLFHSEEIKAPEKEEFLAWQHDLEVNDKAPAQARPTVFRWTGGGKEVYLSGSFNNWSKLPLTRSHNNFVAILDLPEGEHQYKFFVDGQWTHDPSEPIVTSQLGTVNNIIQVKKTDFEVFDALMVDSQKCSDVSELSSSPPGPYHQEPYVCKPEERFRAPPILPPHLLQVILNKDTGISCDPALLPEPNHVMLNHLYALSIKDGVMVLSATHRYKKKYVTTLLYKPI
T1 sequence (P54619 whole entry partner): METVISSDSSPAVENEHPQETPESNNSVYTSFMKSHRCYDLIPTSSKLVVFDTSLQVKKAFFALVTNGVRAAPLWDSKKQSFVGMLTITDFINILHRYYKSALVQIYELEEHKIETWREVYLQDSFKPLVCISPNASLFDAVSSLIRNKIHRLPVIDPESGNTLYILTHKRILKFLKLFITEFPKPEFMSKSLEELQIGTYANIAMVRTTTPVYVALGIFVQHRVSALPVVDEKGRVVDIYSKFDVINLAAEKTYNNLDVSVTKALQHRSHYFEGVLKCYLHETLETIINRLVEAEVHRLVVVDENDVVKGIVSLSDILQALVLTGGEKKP

| EC150 (compound concentration showing 150% relative to the control) [nM] | Emax [%] | SMILES |
| --- | --- | --- |
| 3.6 | 399 | C#CC(C)Oc1nc2nc(-c3ccc(N4CCOCC4)cc3)c(Cl)cc2[nH]1 (centres unmarked) [Compound B-2] |
| 23 | 313 | Cc1ccc(Oc2nc3nc(N4CCCCC4)c(Cl)cc3[nH]2)cc1C(=O)O [Compound B-3] |
| 4700 | 176 | Cc1ccc(Oc2nc3cc(-c4ccc5c(ccn5C)c4)ccc3[nH]2)cc1C(=O)O [Compound B-5] |
| 5100 | 246 | Cc1ccc(Oc2nc3nc(-c4ccc(N5CCOCC5)cc4)ncc3[nH]2)cc1C(=O)O [Compound B-7] |
| 280 | 290 | Cc1ccc(Oc2nc3nc(-c4ccccc4)c(Cl)cc3[nH]2)cc1C(=O)O [Compound B-10] |
| 76 | 311 | Cc1ccc(Oc2nc3nc(-c4ccc(CO)cc4)c(Cl)cc3[nH]2)cc1C(=O)O [Compound B-13] |
| 13 | 339 | Cc1ccc(Oc2nc3nc(-c4ccc(-c5ccccc5)cc4)c(Cl)cc3[nH]2)cc1C(=O)O [Compound B-22] |
| 70 | 301 | Cc1ccc(-c2ccc(-c3nc4nc(Oc5ccc(C)c(C(=O)O)c5)[nH]c4cc3Cl)cc2)cc1 [Compound B-32] |
| 110 | 297 | Cc1ccc(Oc2nc3nc(-c4cccc(O)c4)c(Cl)cc3[nH]2)cc1C(=O)O [Compound B-40] |
| 100 | 321 | Cc1ccc(Oc2nc3nc(-c4ccc(N5CCOCC5)nc4)c(Cl)cc3[nH]2)cc1C(=O)O [Compound B-63] |
| 25 | 283 | Cc1ccc(Oc2nc3cc(-c4ccc(N5CCOCC5)cc4)c(C)nc3[nH]2)cc1C(=O)O [Compound B-81] |
| 190 | 267 | Clc1cc2[nH]c(Oc3ccccc3)nc2nc1-c1ccc(N2CCOCC2)cc1 [Compound B-104] |
| 250 | 249 | CC(C)(C(=O)O)c1ccc(Oc2nc3nc(-c4ccc(N5CCOCC5)cc4)c(Cl)cc3[nH]2)cc1 [Compound B-107] |
| 140 | 315 | O=C(O)/C=C/c1cccc(Oc2nc3nc(-c4ccc(N5CCOCC5)cc4)c(Cl)cc3[nH]2)c1 [Compound B-109] |
| 160 | 288 | O=C(O)COc1ccc(Oc2nc3nc(-c4ccc(N5CCOCC5)cc4)c(Cl)cc3[nH]2)cc1 [Compound B-110] |
| 13 | 316 | NC(=O)c1cccc2ccc(Oc3nc4nc(-c5ccc(N6CCOCC6)cc5)c(Cl)cc4[nH]3)cc12 [Compound B-113] |
| 370 | 243 | NCc1ccc(Oc2nc3nc(-c4ccc(N5CCOCC5)cc4)c(Cl)cc3[nH]2)cc1 [Compound B-117] |
| 97 | 278 | Cc1ccc(Oc2nc3nc(-c4ccc(N5CCOCC5)cc4)c(Cl)cc3[nH]2)cc1 [Compound B-121] |
| 180 | 262 | O=C(O)c1cncc(Oc2nc3nc(-c4ccc(N5CCOCC5)cc4)c(Cl)cc3[nH]2)c1 [Compound B-126] |
| 44 | 298 | OCc1ccc(Oc2nc3nc(-c4ccc(N5CCOCC5)cc4)c(Cl)cc3[nH]2)cc1 [Compound B-131] |
| 360 | 234 | NS(=O)(=O)c1ccc(Oc2nc3nc(-c4ccc(N5CCOCC5)cc4)c(Cl)cc3[nH]2)cc1 [Compound B-133] |
| 27 | 333 | O=C(O)CCc1ccc(Oc2nc3nc(-c4ccc(N5CCOCC5)cc4)c(Cl)cc3[nH]2)cc1 [Compound B-136] |
| 25 | 301 | OCCc1ccc(Oc2nc3nc(-c4ccc(N5CCOCC5)cc4)c(Cl)cc3[nH]2)cc1 [Compound B-137] |

| EC150 (compound concentration showing 150% relative to the control) [nM] | Emax [%] | SMILES |
| --- | --- | --- |
| 61 | 319 | O=C1CCc2ccc(Oc3nc4nc(-c5ccc(N6CCOCC6)cc5)c(Cl)cc4[nH]3)cc2N1 [Compound B-141] |
| 66 | 295 | Clc1cc2[nH]c(Oc3cccc(-c4nnn[nH]4)c3)nc2nc1-c1ccc(N2CCOCC2)cc1 [Compound C-1] |
| 33 | 322 | Cc1ccc(Oc2nc3nc(-c4ccc(N5CCOCC5)cc4)c(Cl)cc3[nH]2)cc1C(=O)NC#N [Compound C-9] |
| 7.4 | 356 | CC(C)(C(=O)O)c1ccc(Oc2nc3nc(-c4ccc(N5CCCC5)cc4)c(Cl)cc3[nH]2)cc1 [Compound C-11] |
| 36 | 338 | Cc1ccc(Oc2nc3nc(-c4ccc(OCC(C)(C)O)cc4)c(Cl)cc3[nH]2)cc1C(=O)O [Compound C-21] |
| 17 | 237 | COc1ccc(Oc2nc3nc(-c4ccc(N5CCOCC5)cc4)c(Cl)cc3[nH]2)cc1C(=O)O [Compound C-24] |
| 8.3 | 349 | COc1ccc(-c2ccc(-c3nc4nc(Oc5ccc(C)c(C(=O)O)c5)[nH]c4cc3Cl)cc2)cc1 [Compound C-29] |
| 68 | 253 | O=C(O)c1cc(Oc2nc3nc(-c4ccc(N5CCOCC5)cc4)c(Cl)cc3[nH]2)ccc1Cl [Compound C-32] |
| 52 | 329 | Cc1ccc(Oc2nc3nc(-c4ccc(OCC(C)C)cc4)c(Cl)cc3[nH]2)cc1C(=O)O [Compound C-33] |
| 1.3 | 349 | Cc1ccc(Oc2nc3nc(-c4ccc(C5(CO)CC5)cc4)c(Cl)cc3[nH]2)cc1C(=O)O [Compound C-37] |
| 35 | 279 | CC(C)(C(=O)O)c1ccc(Oc2nc3nc(-c4ccc(N5CCCC5)cc4)c(F)cc3[nH]2)cc1 [Compound C-39] |
| 16 | 331 | Cc1ccc(Oc2nc3nc(-c4ccc(C(C)(C)O)cc4)c(Cl)cc3[nH]2)cc1C(=O)O [Compound C-63] |
| 4.2 | 335 | CCc1ccc(Oc2nc3nc(-c4ccc(N5CCOCC5)cc4)c(Cl)cc3[nH]2)cc1C(=O)O [Compound C-70] |
| 120 | 298 | Cc1ccc(Oc2nc3nc(-c4ccc(N5CCCCC5=O)cc4)c(Cl)cc3[nH]2)cc1C(=O)O [Compound C-88] |
| 470 | 242 | CCc1ccc(Oc2nc3nc(-c4ccc(N5CCOCC5)cc4)c(Cl)cc3[nH]2)cn1 [Compound C-89] |
| 17 | 309 | Cc1ccc(Oc2nc3nc(C#Cc4ccccc4)c(Cl)cc3[nH]2)cc1C(=O)O [Compound C-95] |
| 99 | 326 | Cc1ccc(Oc2nc3nc(-c4ccc(N5CCOCC5)cc4)c(C(F)(F)F)cc3[nH]2)cc1C(=O)O [Compound C-96] |
| 1700 | 165 | CC(C)(C(N)=O)c1ccc(Oc2nc3nc(-c4ccc(N5CCOCC5)cc4)c(Cl)cc3[nH]2)cc1 [Compound C-98] |
| 170 | 205 | CC(C)(CO)c1ccc(Oc2nc3nc(-c4ccc(N5CCOCC5)cc4)c(Cl)cc3[nH]2)cc1 [Compound C-99] |
| 590 | 212 | COc1ccc(Oc2nc3nc(-c4ccc(N5CCOCC5)cc4)c(Cl)cc3[nH]2)cn1 [Compound C-100] |
| 300 | 232 | CC(C)(C(=O)NCCO)c1ccc(Oc2nc3nc(-c4ccc(N5CCOCC5)cc4)c(Cl)cc3[nH]2)cc1 [Compound C-107] |
| 2.1 | 334 | O=P(O)(O)c1cccc(Oc2nc3cc(Cl)c(-c4ccc(N5CCOCC5)cc4)nc3[nH]2)c1 [Compound C-118] |
| 130 | 237 | CC(=O)NC(C)(C)c1ccc(Oc2nc3nc(-c4ccc(N5CCOCC5)cc4)c(Cl)cc3[nH]2)cc1 [Compound C-119] |
